# Laboratory results taken from patent US11266655B2, “Methods and compositions for treating urea cycle disorders” (Camp4 Therapeutics Corporation, priority 2019, dated 2022).
# Key:
# SLC25A13 = experiment: RNA-seq of compound-treated primary human hepatocytes, SLC25A13 expression; type: cell-based; settings: primary human hepatocytes, triplicate (Table 23, FIG. 15)
# OTC [1] = experiment: HSP90 or HSP70 inhibitors in primary human hepatocytes, OTC mRNA; type: cell-based; settings: hepatocytes from Donor B, normalized to B2M
# Procedure: (§1) Additional small molecules that inhibit HSP90 or HSP70 were tested in primary human hepatocytes as described in Example 2. HSP90 or HSP70 inhibitors were tested in triplicate at 0.3 μM and 3 μM. The results are shown as the fold change (mRNA FC) in the mRNA levels of OTC and CPS1 genes after treatment compared to an untreated control (DMSO) and the standard deviation (SD). In addition, a dose titration experiment was performed with selected HSP90 inhibitors. Hepatocytes were incubated with increasing concentrations of HSP90 inhibitors and the changes in OTC and CPS1 expression quantified as previously described.
# (§2) HSP90 and HSP70 inhibitors were compared to confirm the role of HSP90 in modulating OTC and CPS1 expression. Hepatocytes from Donor B were incubated with various HSP90 inhibitors or an HSP70 inhibitor, Pifithrin-μ, and then harvested for mRNA quantification. OTC and CPS1 mRNA levels were normalized to B2M.
# SLC25A15 = experiment: RNA-seq of compound-treated primary human hepatocytes, SLC25A15 expression; type: cell-based; settings: primary human hepatocytes, triplicate (Table 24, FIG. 16A-B)
# ASS1 = experiment: RNA-seq of compound-treated primary human hepatocytes, ASS1 expression; type: cell-based; settings: primary human hepatocytes, triplicate (Table 15, FIG. 7)
# CPS1 [2] = experiment: HSP90 or HSP70 inhibitors in primary human hepatocytes, CPS1 mRNA; type: cell-based; settings: hepatocytes from Donor B, normalized to B2M
# Procedure: as §1, §2
# OTC [3] = experiment: OTC expression modulated by compounds, OTC/GeoMean of housekeeping genes, DMSO = 1 (Table 3A); type: cell-based, human; settings: 10 uM final concentration
# NAGS = type: cell-based, human
# OTC [4] = experiment: JAK inhibitors at 0.3 and 3 μM in primary human hepatocytes, OTC mRNA fold change; type: cell-based; settings: fold change vs DMSO
# Procedure: (§3) Additional small molecules that inhibit JAK1, JAK2, JAK3, or a combination of the JAK proteins were tested in primary human hepatocytes as described in Example 2. JAK inhibitors were tested in triplicate at 0.3 μM and 3 μM. The results are shown as the fold change (mRNA FC) in the mRNA levels of OTC and CPS1 genes after treatment compared to an untreated control (DMSO) and the standard deviation (SD).
# CPS1 [5] = experiment: JAK inhibitors at 0.3 and 3 μM in primary human hepatocytes, CPS1 mRNA fold change; type: cell-based; settings: fold change vs DMSO
# Procedure: as §3
smiles,measurement,setting,value
"C=CCNC1=C2C[C@@H](C)C[C@H](OC)[C@H](O)[C@@H](C)/C=C(\C)[C@H](OC(N)=O)[C@@H](OC)/C=C\C=C(/C)C(=O)NC(=CC1=O)C2=O [17-AAG (Tanespimycin), Tanespimycin]",Relative SLC25A13 level vs Untreated (±Standard Deviation),SLC25A13; 0.3 μM,1.48 ± 0.01
same,Relative SLC25A13 level vs Untreated (±Standard Deviation),SLC25A13; 1 μM,1.40 ± 0.05
same,Relative SLC25A13 level vs Untreated (±Standard Deviation),SLC25A13; 3 μM,1.51 ± 0.09
same,Relative SLC25A13 level vs Untreated (±Standard Deviation),SLC25A13; 10 μM,1.46 ± 0.14
same,OTC Expression mRNA FC,OTC [1]; 0.3 uM,5.01
same,OTC Expression mRNA FC,OTC [1]; 3 uM,2.84
same,Relative SLC25A15 level vs Untreated (±Standard Deviation),SLC25A15; 0.3 μM,1.48 ± 0.01
same,Relative SLC25A15 level vs Untreated (±Standard Deviation),SLC25A15; 1 μM,1.40 ± 0.05
same,Relative SLC25A15 level vs Untreated (±Standard Deviation),SLC25A15; 3 μM,1.51 ± 0.09
same,Relative SLC25A15 level vs Untreated (±Standard Deviation),SLC25A15; 10 μM,1.46 ± 0.14
same,Relative ASS1 level vs Untreated (±Standard Deviation),ASS1; 0.3 μM,1.37 ± 0.11
same,Relative ASS1 level vs Untreated (±Standard Deviation),ASS1; 1 μM,1.46 ± 0.07
same,CPS1 Expression mRNA FC,CPS1 [2]; 0.3 uM,1.79
same,CPS1 Expression mRNA FC,CPS1 [2]; 3 uM,2.51
Cc1cc(Nc2cc(CN3CCOCC3)c3nc(C)c(Cc4ccc(Cl)cc4F)n3n2)n[nH]1 [LY2784544],Max Value (OTC/GeoMean of HKs; DMSO = 1),OTC [3],2.78
COc1cc2c(cc1OC)CN(C(=O)/C=C/c1c(-c3ccccc3)n(C)c3ncccc13)CC2 [SIS3],"Fold change (Log 2) vs untreated, NAGS expression",NAGS,0.64 Log 2
same,Max Value (OTC/GeoMean of HKs; DMSO = 1),OTC [3],1.46
CC1(C)CC[C@]2(C(=O)O)CC[C@]3(C)[C@H](C(=O)C=C4[C@@]5(C)C=C(C#N)C(=O)C(C)(C)[C@@H]5CC[C@]43C)[C@@H]2C1 [Bardoxolone],Max Value (OTC/GeoMean of HKs; DMSO = 1),OTC [3],2.76
CC1(C)CC(=O)c2c(C(F)(F)F)nn(-c3ccc(C(N)=O)c(N[C@H]4CC[C@H](OC(=O)CN)CC4)c3)c2C1 [PF-04929113 (SNX-5422)],Max Value (OTC/GeoMean of HKs; DMSO = 1),OTC [3],1.73
N#CC(C#N)=NNc1cccc(Cl)c1 [CCCP],Max Value (OTC/GeoMean of HKs; DMSO = 1),OTC [3],4.06
Cl.Cn1c(=O)c(Oc2ccc(F)cc2F)cc2cnc(NC3CCOCC3)nc21 [R1487 Hydrochloride],Relative SLC25A15 level vs Untreated (±Standard Deviation),SLC25A15; 1 μM,1.56 ± 0.16
same,Relative SLC25A15 level vs Untreated (±Standard Deviation),SLC25A15; 10 μM,1.51 ± 0.09
same,Max Value (OTC/GeoMean of HKs; DMSO = 1),OTC [3],1.64
O=C(NCCCNc1nc(Nc2cccc(CN3CCOCC3)c2)ncc1C1CC1)C1CCC1 [MRT67307],Max Value (OTC/GeoMean of HKs; DMSO = 1),OTC [3],1.68
Cc1cc(Nc2nc(N[C@@H](C)c3ncc(F)cn3)ncc2Cl)[nH]n1 [AZD1480],OTC mRNA FC,OTC [4]; 0.3 uM,1.63
same,OTC mRNA FC,OTC [4]; 3 uM,2.3
same,CPS1 mRNA FC,CPS1 [5]; 0.3 uM,1.1
same,CPS1 mRNA FC,CPS1 [5]; 3 uM,1.77
same,Max Value (OTC/GeoMean of HKs; DMSO = 1),OTC [3],1.46
